Measurements reported in patent US20080044829A1, “Biosensor Utilizing Pigment-Synthesizing Gene Of A Purple Non-Sulfur Bacterium And A Method For Preparing Such A Biosensor” (priority 2004, published 2008).

Assays:
[1] = tested on: ddhA gene (promoter Pddh of ddh operon); experiment: RT-PCR analysis of ddhA gene transcription induction by sulfur compounds; type: cell-based, Rv. sulfidophilum W-1S; settings: 3 days in 4CMOM medium, bright aerobic and dark aerobic condition
Description: Extraction of RNA was carried out using RNeasy Mini Kit (QIAGEN) according to the protocol attached thereto. For dissolving the cells at that time, lysozyme was added thereto in the indicated concentration. For the removal of the contaminated DNA, DNase I (TaKaRa) was used by the method indicated in the protocol together with the buffer attached thereto. Incubation was carried out at 37° C. for 30 minutes and, after that, RNA was purified via a PCI treatment and a precipitating operation with ethanol. A reverse transcription reaction was carried out where 1 μg of purified RNA as a template using an RNA PCR Kit (AMV) Ver. 2.1 (TaKaRa). In the reverse transcription reaction, things contained in the kit, i.e. reverse transcriptase, RNase inhibitor, random nonamer, buffer, dNTP and MgCl2 were used and the reaction was conducted at 45° C. for 28 minutes. A PCR was carried out by the same manner as in the above mentioned “4: PCR” using 4 μl of the solution after the reverse transcription reaction as a template.
Firstly, investigation of a DMS-inductive property of Pddh was planned. Primers ddhA1 and ddhA2 were designed based on ddhA gene sequence on the database. […]

DMS biosensor strain = experiment: Response of DMS biosensor strain (pSDMS in pigment variant): color tone and rate of red pigment by HPLC; type: cell-based, Rv. sulfidophilum; settings: third day of incubation, bright aerobic condition, n=3
Description: When incubation of a bacterium strain was conducted in 10 ml of medium in a test tube under various conditions (under slightly aerobic and bright condition; under slightly aerobic and dark condition; and under anaerobic and bright condition), the incubation was done for three days. The culture liquid (1 ml) was placed in an Eppendorf tube, the pellets after centrifugal separation was frozen at −80° C. for 2 hours and then freeze-dried for one night. An appropriate amount (100 μl to 500 μl) of a mixed liquid of acetone and methanol was added to the resulting freeze-dried product, subjected to vortex for 2 minutes and then centrifuged for 5 minutes at 14,000 rpm using a portable centrifuge and the resulting supernatant liquid was used as a sample for an HPLC. […]
Since DMS is hardly soluble in water, ethanol was used as a solvent for the manufacture of concentrated stocks and preparation of diluted series. […] Analysis of pigment composition was conducted via an HPLC analysis the same as before and, from the value of area of each peak shown in the resulting HPLC chart, rate of red pigments (DMSO and SO) to the sum of total carotenoid pigment (DMSO, DMSE, SO, SE and neurosporene) was calculated. For each sample, mean value and standard deviation was calculated from the above value and a graph was prepared. […]

SENS-AS strain = experiment: Specificity of SENS-AS strain to metals other than arsenic; type: cell-based, Rv. sulfidophilum
Excerpt: Therefore, specificity to metal of the SENS-AS strain was investigated by adding a sample containing metal other than arsenic to the SENS-AS strain and checking the responding property to those samples. With regard to the metal other than arsenic, there were used antimony and bismuth which have been reported to inherently show a responding property to ArsR and also cobalt, cadmium, nickel, zinc and lead where responding property in a protein having the similar sequence to metal-bonding site of ArsR has been confirmed already [L. S. Busenlehner, et al., (2003) FEMS Microbiol. Rev., 27:131-43]. The responding property was also tested for a solution in which iron, manganese, copper and aluminum which are abundantly contained in tap water were mixed. The experiment was carried out by the same method as in the detection of arsenic, rate of red pigments (DMSO and SO) to the total sum of DMSO, DMSE, SO and SE was calculated from the area value of each peak shown in the chart prepared as a result of an HPLC analysis, mean value and standard deviation for each sample were calculated and graphs were prepared.
From the above results, it was now made clear that the arsenic-detecting biosensor SENS-AS strain responded arsenic and bismuth. However, in order to respond to bismuth, a bismuth concentration of as high as 100-fold as compared with arsenic was necessary.

SMILES | ddhA gene transcription induction [1] | DMS concentration giving significant accumulation of SO and discriminable color tone (DMS biosensor strain) | concentration needed for response as compared with arsenic (SENS-AS strain)
CSC [DMS, dimethyl sulfide] | apparent ddhA gene transcription induction was observed | 3 mM | –
[Bi] [bismuth] | – | – | 100 fold
C[S+](C)[O-] [dimethyl sulfoxide] | no significant induction of ddhA gene transcription | – | –
